The values that follow come from ChEMBL document CHEMBL1144455, “A small molecule-kinase interaction map for clinical kinase inhibitors” (Nat Biotechnol, 2005).

pKd: −log10 of the molar value.

The target of assay [1] is Tyrosine-protein kinase Yes (Homo sapiens, UniProt P07947).
Assay [2] addresses T1, Serine/threonine-protein kinase 36 (Homo sapiens, UniProt Q9NRP7).
T1 sequence (Q9NRP7 whole entry): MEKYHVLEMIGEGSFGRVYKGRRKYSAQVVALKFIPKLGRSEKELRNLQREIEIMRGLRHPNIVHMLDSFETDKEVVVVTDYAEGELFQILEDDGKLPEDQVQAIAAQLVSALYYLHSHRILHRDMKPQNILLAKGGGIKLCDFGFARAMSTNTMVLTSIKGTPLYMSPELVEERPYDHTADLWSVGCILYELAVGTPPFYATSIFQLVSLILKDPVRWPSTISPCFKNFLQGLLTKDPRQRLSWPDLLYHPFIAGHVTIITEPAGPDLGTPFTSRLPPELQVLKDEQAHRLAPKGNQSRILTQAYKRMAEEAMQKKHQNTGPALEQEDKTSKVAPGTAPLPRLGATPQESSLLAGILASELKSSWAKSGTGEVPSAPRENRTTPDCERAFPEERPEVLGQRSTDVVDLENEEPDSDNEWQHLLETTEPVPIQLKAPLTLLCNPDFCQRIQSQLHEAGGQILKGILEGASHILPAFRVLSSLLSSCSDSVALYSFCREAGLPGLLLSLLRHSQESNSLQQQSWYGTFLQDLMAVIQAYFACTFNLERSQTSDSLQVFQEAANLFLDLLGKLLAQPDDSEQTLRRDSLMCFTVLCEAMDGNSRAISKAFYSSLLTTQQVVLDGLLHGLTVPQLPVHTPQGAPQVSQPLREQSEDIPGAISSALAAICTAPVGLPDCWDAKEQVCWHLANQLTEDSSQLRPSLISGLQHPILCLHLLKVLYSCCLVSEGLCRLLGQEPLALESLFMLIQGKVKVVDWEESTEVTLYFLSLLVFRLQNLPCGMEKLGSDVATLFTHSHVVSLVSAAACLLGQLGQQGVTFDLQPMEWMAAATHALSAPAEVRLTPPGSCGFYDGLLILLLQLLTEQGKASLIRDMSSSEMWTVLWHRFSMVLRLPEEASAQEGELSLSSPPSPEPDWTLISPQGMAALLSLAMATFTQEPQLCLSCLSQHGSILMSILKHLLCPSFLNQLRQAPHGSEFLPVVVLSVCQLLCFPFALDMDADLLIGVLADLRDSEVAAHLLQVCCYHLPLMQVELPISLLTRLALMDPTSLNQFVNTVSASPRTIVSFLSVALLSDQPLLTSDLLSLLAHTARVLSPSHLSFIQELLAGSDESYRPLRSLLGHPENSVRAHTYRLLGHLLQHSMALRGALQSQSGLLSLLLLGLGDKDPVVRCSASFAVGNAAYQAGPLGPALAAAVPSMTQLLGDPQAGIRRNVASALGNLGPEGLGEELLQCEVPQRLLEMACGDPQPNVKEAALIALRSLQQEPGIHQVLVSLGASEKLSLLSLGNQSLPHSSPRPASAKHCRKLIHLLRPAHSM

The target in assay [3] is T2, Serine/threonine-protein kinase 17A (Homo sapiens, UniProt Q9UEE5).
T2 sequence (Q9UEE5 whole entry): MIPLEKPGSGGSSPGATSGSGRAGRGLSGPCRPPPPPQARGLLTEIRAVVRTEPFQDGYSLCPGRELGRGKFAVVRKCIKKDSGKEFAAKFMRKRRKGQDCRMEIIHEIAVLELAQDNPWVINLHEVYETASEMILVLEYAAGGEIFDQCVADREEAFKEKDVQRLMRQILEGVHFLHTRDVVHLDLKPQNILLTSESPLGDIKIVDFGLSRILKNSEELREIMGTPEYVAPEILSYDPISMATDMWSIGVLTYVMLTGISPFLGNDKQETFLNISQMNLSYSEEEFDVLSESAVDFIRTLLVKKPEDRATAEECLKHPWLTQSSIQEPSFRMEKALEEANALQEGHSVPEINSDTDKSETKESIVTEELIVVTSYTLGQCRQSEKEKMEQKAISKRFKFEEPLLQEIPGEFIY

For assay [4], the target named is Serine/threonine-protein kinase pim-2 (Homo sapiens, UniProt Q9P1W9).
Chain of Serine/threonine-protein kinase pim-2 (Q9P1W9 whole entry): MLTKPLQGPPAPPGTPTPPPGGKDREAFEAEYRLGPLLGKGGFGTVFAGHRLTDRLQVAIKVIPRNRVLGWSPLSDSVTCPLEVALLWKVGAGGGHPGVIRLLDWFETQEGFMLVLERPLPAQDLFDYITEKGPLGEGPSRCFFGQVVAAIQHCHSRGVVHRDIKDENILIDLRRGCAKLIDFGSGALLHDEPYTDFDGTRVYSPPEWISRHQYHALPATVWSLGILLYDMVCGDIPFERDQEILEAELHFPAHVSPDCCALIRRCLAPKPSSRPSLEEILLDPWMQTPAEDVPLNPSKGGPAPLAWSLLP
Assay [5] deals with T3, Aurora kinase A (Homo sapiens, UniProt O14965).
T3 sequence (O14965 whole entry): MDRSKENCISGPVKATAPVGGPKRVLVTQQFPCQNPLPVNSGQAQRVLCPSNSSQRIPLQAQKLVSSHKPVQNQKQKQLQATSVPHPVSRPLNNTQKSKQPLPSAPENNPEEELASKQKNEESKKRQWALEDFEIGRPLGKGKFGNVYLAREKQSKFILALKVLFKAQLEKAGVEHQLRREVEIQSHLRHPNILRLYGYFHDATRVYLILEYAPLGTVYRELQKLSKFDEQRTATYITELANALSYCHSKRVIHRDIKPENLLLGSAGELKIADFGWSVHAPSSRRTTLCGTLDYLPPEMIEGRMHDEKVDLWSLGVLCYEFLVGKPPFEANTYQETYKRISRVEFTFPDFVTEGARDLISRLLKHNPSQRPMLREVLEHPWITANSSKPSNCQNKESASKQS

Chain of Tyrosine-protein kinase Yes (P07947 whole entry): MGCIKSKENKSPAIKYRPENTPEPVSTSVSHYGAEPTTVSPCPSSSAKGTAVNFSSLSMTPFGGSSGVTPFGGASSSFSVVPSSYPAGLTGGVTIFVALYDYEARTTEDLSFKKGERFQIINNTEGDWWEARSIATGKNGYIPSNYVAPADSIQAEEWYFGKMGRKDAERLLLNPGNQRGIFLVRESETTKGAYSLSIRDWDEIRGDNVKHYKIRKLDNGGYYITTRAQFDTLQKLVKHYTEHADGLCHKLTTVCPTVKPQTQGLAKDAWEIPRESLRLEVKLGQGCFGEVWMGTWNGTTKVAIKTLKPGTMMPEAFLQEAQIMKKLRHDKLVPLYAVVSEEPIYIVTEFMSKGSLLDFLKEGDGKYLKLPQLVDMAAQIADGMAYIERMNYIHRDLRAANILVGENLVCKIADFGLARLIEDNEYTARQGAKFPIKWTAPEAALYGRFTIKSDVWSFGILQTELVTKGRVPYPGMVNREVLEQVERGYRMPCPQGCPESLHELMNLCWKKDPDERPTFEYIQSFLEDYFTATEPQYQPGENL

`CCOc1cc2ncc(C#N)c(Nc3ccc(F)c(Cl)c3)c2cc1NC(=O)/C=C/CN(C)C` [PELITINIB]: the pKd in assay [1] is 6.08.

For the compound `Oc1ccc(-c2nc(-c3ccc(F)cc3)c(-c3ccncc3)[nH]2)cc1` [SB-202190], in assay [2], the pKd is 5.42.

As to `Oc1c2ccccc2c2c3c(cccc13)N=N2` [SP-600125], the negative logarithm of the Kd (pKd) was 5.68 in assay [3], 6.34 in assay [4] and 6.01 in assay [5].

One may read the pKd as the negative decadic logarithm of the Kd, by convention in mol/L.
